This note sets out measurements from patent US20180244611A1, “Modulators of the Cystic Fibrosis Transmembrane Conductance Regulator Protein and Methods of Use” (AbbVie S.à.r.l., priority 2017, published 2018).

Assay [1] addresses T1, F508delCFTR (Homo sapiens, UniProt P13569, DEL508-508).
T1 construct: expressed in transfected cells; host or cells: CFBE41o- human lung-derived epithelial cells (CFBE41o-F508delCFTR-HRP), doxycycline-inducible
Description: Cell Surface Expression-Horse Radish Peroxidase (CSE-HRP) assay, test compound without co-corrector.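 For Maximum % activity (without co-corrector): percent of on-plate 2 µM positive control corrector response over DMSO.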 It is filed as cell-based. The following applies: for EC50: test compound without co-corrector. The gist of the method: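 Compound without co-corrector was tested at eight 3-fold concentrations, top 20 μM, for 18-24 h at 33° C on doxycycline-induced (0.5 μg/mL, 72 h) CFBE41o- F508delCFTR-HRP cells. After DPBS washes, luminol luminescence gave % activity relative to on-plate positive control minus DMSO; EC50 came from triplicate-plate sigmoidal fitting.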

In assay [2] the target is T1, F508delCFTR. Description: Cell Surface Expression-Horse Radish Peroxidase (CSE-HRP) assay, test compound with co-corrector.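 For Maximum % activity (with co-corrector): percent of 2 µM positive control corrector over DMSO; co-corrector is that same compound.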 It is filed as cell-based. The note with it: for Maximum % activity (with co-corrector): maximum at any tested concentration. Summed up: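 Surface-expression read-out: luminol luminescence from an HRP tag in the fourth exofacial loop of F508delCFTR, in doxycycline-induced (0.5 μg/mL, 72 h) CFBE41o- cells. Compound plus 2 μM co-corrector added for 18-24 h at 33° C., 8-point 3-fold series up to 20 μM. EC50 from a sigmoidal fit with variable Hill slope, normalised to positive control, triplicate plates.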

The mark [3] stands for this setting: maximum at any tested concentration, normalized to positive control, without co-corrector.
Setting [4] is: normalized to positive control, with 2 μM co-corrector.
The mark [5] stands for this setting: maximum at any tested concentration, normalized to on-plate positive control, without co-corrector.
[6] abbreviates: CSE-HRP assay, test compound with 2 μM co-corrector.
Where [7] appears, read: normalized to on-plate positive control, with 2 μM co-corrector.

T1 sequence (P13569 with tags, fused parts or gaps DEL508-508): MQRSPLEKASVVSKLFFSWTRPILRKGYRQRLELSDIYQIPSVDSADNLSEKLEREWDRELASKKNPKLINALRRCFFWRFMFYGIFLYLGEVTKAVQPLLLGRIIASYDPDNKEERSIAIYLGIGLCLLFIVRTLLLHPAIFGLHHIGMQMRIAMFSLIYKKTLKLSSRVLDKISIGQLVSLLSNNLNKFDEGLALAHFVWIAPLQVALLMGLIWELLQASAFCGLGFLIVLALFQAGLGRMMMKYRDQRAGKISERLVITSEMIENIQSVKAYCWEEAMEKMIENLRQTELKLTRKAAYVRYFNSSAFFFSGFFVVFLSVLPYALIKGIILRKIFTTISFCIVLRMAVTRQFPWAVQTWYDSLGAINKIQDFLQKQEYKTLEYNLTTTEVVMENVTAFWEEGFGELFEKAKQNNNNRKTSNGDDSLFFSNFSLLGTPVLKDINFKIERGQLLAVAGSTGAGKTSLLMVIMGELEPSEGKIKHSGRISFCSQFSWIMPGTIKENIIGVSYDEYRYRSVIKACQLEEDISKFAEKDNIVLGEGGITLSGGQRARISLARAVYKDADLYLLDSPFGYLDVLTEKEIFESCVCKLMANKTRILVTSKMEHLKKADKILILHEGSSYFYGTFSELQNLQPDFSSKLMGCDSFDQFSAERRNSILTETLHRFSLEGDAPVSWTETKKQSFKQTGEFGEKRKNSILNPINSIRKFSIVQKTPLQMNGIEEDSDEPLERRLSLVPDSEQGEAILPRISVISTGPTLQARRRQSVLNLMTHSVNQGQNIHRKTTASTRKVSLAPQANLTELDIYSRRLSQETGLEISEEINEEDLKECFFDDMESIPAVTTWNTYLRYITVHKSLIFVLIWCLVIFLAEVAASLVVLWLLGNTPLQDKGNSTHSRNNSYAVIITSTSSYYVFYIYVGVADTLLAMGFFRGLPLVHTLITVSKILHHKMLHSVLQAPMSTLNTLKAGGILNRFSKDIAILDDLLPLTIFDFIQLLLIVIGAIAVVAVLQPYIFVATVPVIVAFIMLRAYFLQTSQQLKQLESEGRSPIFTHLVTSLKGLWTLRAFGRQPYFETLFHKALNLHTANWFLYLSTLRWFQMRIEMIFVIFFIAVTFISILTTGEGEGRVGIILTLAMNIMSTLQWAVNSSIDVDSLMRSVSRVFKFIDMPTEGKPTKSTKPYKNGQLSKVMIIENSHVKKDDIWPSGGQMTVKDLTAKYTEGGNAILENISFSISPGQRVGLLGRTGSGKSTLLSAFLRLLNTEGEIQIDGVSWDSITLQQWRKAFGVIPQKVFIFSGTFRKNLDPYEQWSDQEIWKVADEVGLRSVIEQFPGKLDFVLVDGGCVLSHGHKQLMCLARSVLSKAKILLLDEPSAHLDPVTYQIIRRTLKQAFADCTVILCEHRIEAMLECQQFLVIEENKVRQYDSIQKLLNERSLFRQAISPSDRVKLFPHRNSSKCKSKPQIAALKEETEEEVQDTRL

By Emax is commonly meant the maximal effect, on the per cent scale that the assay sets. For orientation: EC50 means the concentration giving half of the maximal effect. Lower therefore signals greater potency. In turn, `COc1ccc(Br)c2c1C(C(=O)NS(=O)(=O)c1cccc3c(OC)cccc13)CC2` (stereo not shown) [II-133] had an Emax on F508delCFTR [1] (setting [3]) of at least 150%. Also, the concentration giving a half-maximal response (EC50) on F508delCFTR [1] and on F508delCFTR [2] (with 2 μM co-corrector) was 3 to 10 µM throughout. Also, the “Maximum % activity (with co-corrector)” value on F508delCFTR [2] (setting [4]) is “+++ (≥350)”.
Compound `CC1(C(=O)NS(=O)(=O)c2cccc3ccccc23)CCc2cccc(Cl)c21` (stereo not shown) [Example I-14, 7-chloro-1-methyl-N-(naphthalene-1-sulfonyl)-2,3-dihydro-1H-indene-1-carboxamide] came in with a maximum response (Emax) at F508delCFTR [1] (setting [3]) of at least 150%. Moreover, the EC50 on F508delCFTR [1] and on F508delCFTR [2] (with 2 μM co-corrector) was under 3 µM throughout. Moreover, the “Maximum % activity (with co-corrector)” value at F508delCFTR [2] (setting [4]) is listed as “+++ (≥350)”.
Consider `COc1cccc(COc2ccc(Br)c3c2CCCC3C(=O)N(Cc2cccc(OC)c2)S(=O)(=O)c2cccc3ccccc23)c1` (stereo not shown) [II-86], for which the Emax on F508delCFTR [1] (setting [3]) was under 50%. Further, the EC50 at F508delCFTR [1] was at least 10 µM; on F508delCFTR [2] (with 2 μM co-corrector) it was 3 to 10 µM. In addition, at F508delCFTR [2] (setting [4]), the “Maximum % activity (with co-corrector)” value is “++ (≥150 and <350)”.
For the compound `COc1ncc(C2CCC2)c2c1[C@@H](C(=O)NS(=O)(=O)c1cccc3ccccc13)CCC2` [Example I-121, (8S)-4-cyclobutyl-1-methoxy-N-(naphthalene-1-sulfonyl)-5,6,7,8-tetrahydroisoquinoline-8-carboxamide], the Emax at F508delCFTR [1] (setting [3]) is at least 150%. The half-maximal effective concentration (EC50) at F508delCFTR [1] and on F508delCFTR [2] (with 2 μM co-corrector) was 3 to 10 µM throughout. Further, on F508delCFTR [2] (setting [4]), the “Maximum % activity (with co-corrector)” value is “+++ (≥350)”.
In turn, `O=C(NS(=O)(=O)c1cccc2ccccc12)C1(Cc2ccc(Cl)nc2)CCc2c(Cl)cccc21` (stereo not shown) [Example I-36, 4-chloro-1-[(6-chloropyridin-3-yl)methyl]-N-(naphthalene-1-sulfonyl)-2,3-dihydro-1H-indene-1-carboxamide] had an Emax on F508delCFTR [1] (setting [3]) of 50 to 150%. Moreover, the EC50 at F508delCFTR [1] was 3 to 10 µM; at F508delCFTR [2] (with 2 μM co-corrector), under 3 µM. Besides, on F508delCFTR [2] (setting [4]), the “Maximum % activity (with co-corrector)” value is listed as “+++ (≥350)”.
`CCC1(C(=O)NS(=O)(=O)c2ccccc2OCCOC)CCc2c(Cl)cccc21` (stereo not shown) [II-63] displayed an Emax at F508delCFTR [1] (setting [3]) of under 50%. Also, the EC50 at F508delCFTR [1] and at F508delCFTR [2] (with 2 μM co-corrector) was under 3 µM each time. Further, the “Maximum % activity (with co-corrector)” value at F508delCFTR [2] (setting [4]) is “++ (≥150 and <350)”.
Turning to `COc1ccc2c(c1OC)CCCC2C(=O)NS(=O)(=O)c1ccccc1C` (stereo not shown) [II-9], the Emax at F508delCFTR [1] (setting [3]) is under 50%. Also, the EC50 at F508delCFTR [1] was at least 10 µM; at F508delCFTR [2] (with 2 μM co-corrector), 3 to 10 µM. Also, the “Maximum % activity (with co-corrector)” value at F508delCFTR [2] (setting [4]) is “++ (≥150 and <350)”.
For `Cc1ccccc1S(=O)(=O)NC(=O)C1CCc2c(-c3ccc(N4CCOCC4)nc3)cccc21` (stereo not shown) [III-100], the 50% effective concentration (EC50) at F508delCFTR [1] (CSE-HRP assay) is at least 10 µM; on F508delCFTR [2] (setting [6]), 3 to 10 µM. This compound also showed a maximal effect (Emax) at F508delCFTR [1] (setting [5]) of under 50%. Besides, at F508delCFTR [2] (setting [7]), the “Maximum % activity (with co-corrector)” value was “+ (<150)”.
With `CCC1(C(=O)NS(=O)(=O)c2ccc(CN(C)C)cc2)CCc2c(Cl)cccc21` (stereo not shown) [III-130], the half-maximal effective concentration (EC50) at F508delCFTR [1] (CSE-HRP assay) and at F508delCFTR [2] (setting [6]) was at least 10 µM each time. This compound came in with a maximal response (Emax) on F508delCFTR [1] (setting [5]) of under 50%. Also, at F508delCFTR [2] (setting [7]), the “Maximum % activity (with co-corrector)” value is on record as “+ (<150)”.
As to `CCC1(C(=O)NS(=O)(=O)c2cccc3ccccc23)CCCc2cccc(Cl)c21` (stereo not shown) [Example I-34, 8-chloro-1-ethyl-N-(naphthalene-1-sulfonyl)-1,2,3,4-tetrahydronaphthalene-1-carboxamide], the Emax on F508delCFTR [1] (setting [3]) was at least 150%. In addition, the 50% effective concentration (EC50) on F508delCFTR [1] and at F508delCFTR [2] (with 2 μM co-corrector) was under 3 µM each time. The “Maximum % activity (with co-corrector)” value at F508delCFTR [2] (setting [4]) was “+++ (≥350)”.
As to `COc1ccc(-c2ccc(C(F)(F)F)nc2)c2c1C(C(=O)NS(=O)(=O)c1cccc3ccccc13)CCC2` (stereo not shown) [III-171], the half-maximal effective concentration (EC50) at F508delCFTR [1] (CSE-HRP assay) and on F508delCFTR [2] (setting [6]) was 3 to 10 µM each time. This compound also showed an Emax on F508delCFTR [1] (setting [5]) of 50 to 150%. Further, the “Maximum % activity (with co-corrector)” value on F508delCFTR [2] (setting [7]) is listed as “+++ (≥350)”.
Regarding `COc1ccc(C2CCC2)c2c1C(C(=O)NS(=O)(=O)c1cccc3cnn(C)c13)C2` (stereo not shown) [Example I-132, 2-cyclobutyl-5-methoxy-N-(1-methyl-1H-indazole-7-sulfonyl)bicyclo[4.2.0]octa-1,3,5-triene-7-carboxamide], the Emax at F508delCFTR [1] (setting [3]) is at least 150%. For the same compound, the EC50 at F508delCFTR [1] and on F508delCFTR [2] (with 2 μM co-corrector) was under 3 µM each time. The “Maximum % activity (with co-corrector)” value on F508delCFTR [2] (setting [4]) is on record as “+++ (≥350)”.
On F508delCFTR [1] (setting [3]), `COc1ccc(CC(C)C)c2c1C(C(=O)NS(=O)(=O)c1cccc3ccccc13)CCC2` (stereo not shown) [Example I-68, 8-methoxy-5-(2-methylpropyl)-N-(naphthalene-1-sulfonyl)-1,2,3,4-tetrahydronaphthalene-1-carboxamide] displayed an Emax of at least 150%. Moreover, the 50% effective concentration (EC50) on F508delCFTR [1] and on F508delCFTR [2] (with 2 μM co-corrector) was under 3 µM throughout. Further, the “Maximum % activity (with co-corrector)” value at F508delCFTR [2] (setting [4]) was “+++ (≥350)”.
In turn, `COc1ccc(C2CCC2)c2c1C(C(=O)NS(=O)(=O)c1cccc3ccccc13)CC2` (stereo not shown) [Example I-76, 4-cyclobutyl-7-methoxy-N-(naphthalene-1-sulfonyl)-2,3-dihydro-1H-indene-1-carboxamide] had a maximum response (Emax) at F508delCFTR [1] (setting [3]) of at least 150%. The 50% effective concentration (EC50) at F508delCFTR [1] is 3 to 10 µM; at F508delCFTR [2] (with 2 μM co-corrector), under 3 µM. Also, the “Maximum % activity (with co-corrector)” value at F508delCFTR [2] (setting [4]) is “+++ (≥350)”.
`CCC1(C(=O)NS(=O)(=O)c2cccc3c(C4CCC4)cccc23)CCc2c(C3CCC3)cccc21` (stereo not shown) [II-83] returned a maximum response (Emax) on F508delCFTR [1] (setting [3]) of 50 to 150%. For the same compound, the concentration giving a half-maximal response (EC50) on F508delCFTR [1] and on F508delCFTR [2] (with 2 μM co-corrector) was 3 to 10 µM each time. Further, the “Maximum % activity (with co-corrector)” value at F508delCFTR [2] (setting [4]) was “++ (≥150 and <350)”.
Consider `COc1cccc2c1CCCC2C(=O)NS(=O)(=O)c1cccc2cccnc12` (stereo not shown) [II-43], for which, at F508delCFTR [1] (setting [3]), the Emax lay in the range of 50 to 150%. The EC50 on F508delCFTR [1] and at F508delCFTR [2] (with 2 μM co-corrector) was 3 to 10 µM in each case. Further, the “Maximum % activity (with co-corrector)” value on F508delCFTR [2] (setting [4]) was “++ (≥150 and <350)”.
For the compound `CCC1(C(=O)NS(=O)(=O)c2c(Cl)nc3sccn23)CCc2c(Cl)cccc21` (stereo not shown) [III-134], the EC50 at F508delCFTR [1] (CSE-HRP assay) and at F508delCFTR [2] (setting [6]) was at least 10 µM each time. At F508delCFTR [1] (setting [5]), the Emax is under 50%. In addition, the “Maximum % activity (with co-corrector)” value on F508delCFTR [2] (setting [7]) is reported as “+ (<150)”.
Regarding `CCOc1ccc(S(=O)(=O)NC(=O)C2CCc3c(Br)ccc(OC)c32)c2ccccc12` (stereo not shown) [III-161], the EC50 on F508delCFTR [1] (CSE-HRP assay) and on F508delCFTR [2] (setting [6]) was 3 to 10 µM each time. The compound also had a maximal effect (Emax) on F508delCFTR [1] (setting [5]) of under 50%. Moreover, on F508delCFTR [2] (setting [7]), the “Maximum % activity (with co-corrector)” value is “++ (≥150 and <350)”.
With `CCOC(=O)COc1ccc(Br)c2c1CCCC2C(=O)NS(=O)(=O)c1cccc2ccccc12` (stereo not shown) [II-87], the maximal response (Emax) at F508delCFTR [1] (setting [3]) is under 50%. Besides, the EC50 on F508delCFTR [1] and at F508delCFTR [2] (with 2 μM co-corrector) was under 3 µM each time. Also, the “Maximum % activity (with co-corrector)” value at F508delCFTR [2] (setting [4]) was “++ (≥150 and <350)”.
With “2-cyclobutyl-5-methoxy-N-(1-methyl-1H-benzimidazole-7-sulfonyl)bicyclo[4.2.0]octa-1,3,5-triene-7-carboxamide [Example I-134]”, the “Maximum % activity (without co-corrector)” value at F508delCFTR [1] (setting [3]) was “+++ (≥150)”. Further, the EC50 at F508delCFTR [1] and on F508delCFTR [2] (with 2 μM co-corrector) was under 3 µM each time. Besides, the “Maximum % activity (with co-corrector)” value at F508delCFTR [2] (setting [4]) is recorded as “+++ (≥350)”.
On to `COc1ccc(C(=O)O)c2c1C(C(=O)NS(=O)(=O)c1cccc3ccccc13)CC2` (stereo not shown) [III-183], for which the concentration for a half-maximal effect (EC50) on F508delCFTR [1] (CSE-HRP assay) is at least 10 µM; on F508delCFTR [2] (setting [6]), 3 to 10 µM. The same compound displayed an Emax at F508delCFTR [1] (setting [5]) of under 50%. Moreover, the “Maximum % activity (with co-corrector)” value at F508delCFTR [2] (setting [7]) is “++ (≥150 and <350)”.
On to `COc1ccc(C2CCC2)c2c1C(C(=O)NS(=O)(=O)c1cccc3ncccc13)CC2` (stereo not shown) [Example I-77, 4-cyclobutyl-7-methoxy-N-(quinoline-5-sulfonyl)-2,3-dihydro-1H-indene-1-carboxamide], for which, at F508delCFTR [1] (setting [3]), the maximum response (Emax) was at least 150%. Further, the concentration giving a half-maximal response (EC50) is 3 to 10 µM on F508delCFTR [1] and under 3 µM on F508delCFTR [2] (with 2 μM co-corrector). The “Maximum % activity (with co-corrector)” value on F508delCFTR [2] (setting [4]) is recorded as “+++ (≥350)”.
